The values below come from patent US8796466B2, “Hepatitis C virus inhibitors” (Bristol-Myers Squibb Company, priority 2009, dated 2014).

Structures are written as SMILES.

The first test deals with HCV 1b genotype. Description: HCV Replicon assay (HCV 1b genotype). The test is classed as cell-based, Hepatitis C virus. As to conditions: Hepatitis C virus; HCV 1b genotype replicon; Effective 50% inhibitory concentration; read-out: 1b EC50. On the procedure:
An HCV Replicon assay was utilized in the present disclosure, and was prepared, conducted and validated as described in commonly owned PCT/US2006/022197 and in O'Boyle et. al. Antimicrob Agents Chemother. 2005 April; 49(4):1346-53. Assay methods incorporating luciferase reporters have also been used as described (Apath.com).
HCV-neo replicon cells and replicon cells containing mutations in the NS5A region were used to test the currently described family of compounds. The compounds were determined to have more than 10-fold less inhibitory activity on cells containing mutations than wild-type cells. Thus, the compounds of the present disclosure can be effective in inhibiting the function of the HCV NS5A protein and are understood to be as effective in combinations as previously described in application PCT/US2006/022197 and commonly owned WO/04014852. Further, the compounds of the present disclosure can be effective against the HCV 1b genotype. It should also be understood that the compounds of the present disclosure can inhibit multiple genotypes of HCV. […] In one embodiment, compounds of the present disclosure are inhibitory versus 1a, 1b, 2a, 2b, 3a, 4a, and 5a genotypes.
For `COC(=O)N[C@H](C(=O)N1CCC[C@H]1c1ncc(-c2ccc(C#Cc3ccc4c(c3)CCc3nc([C@@H]5CCCN5C(=O)[C@@H](NC(=O)OC)C(C)C)[nH]c3-4)cc2)[nH]1)C(C)C` [Example D-3, methyl ((1S)-1-(((2S)-2-(4-(4-((2-((2S)-1-((2S)-2-((methoxycarbonyl)amino)-3-methylbutanoyl)-2-pyrrolidinyl)-4,5-dihydro-1H-naphtho[1,2-d]imidazol-7-yl)ethynyl)phenyl)-1H-imidazol-2-yl)-1-pyrrolidinyl)carbonyl)-2-methylpropyl)carbamate], the EC50 stood at 6 pM. Consider `COC(=O)N[C@@H](C(=O)N1[C@@H]2C[C@@H]2C[C@H]1c1ncc(-c2ccc(C#Cc3ccc4c(ccc5nc([C@@H]6C[C@H]7C[C@H]7N6C(=O)[C@H](NC(=O)OC)c6ccccc6)[nH]c54)c3)cc2)[nH]1)c1ccccc1` [Example D-8, methyl ((1R)-2-((1R,3S,5R)-3-(7-((4-(2-((1R,3S,5R)-2-((2R)-2-((methoxycarbonyl)amino)-2-phenylacetyl)-2-azabicyclo[3.1.0]hex-3-yl)-1H-imidazol-4-yl)phenyl)ethynyl)-1H-naphtho[1,2-d]imidazol-2-yl)-2-azabicyclo[3.1.0]hex-2-yl)-2-oxo-1-phenylethyl)carbamate], for which the EC50 came to 5 pM.

Still in this test, the particulars now being: Hepatitis C virus; HCV 1b genotype replicon; class symbol; read-out: Range (EC50 values against HCV 1b).
Take `COC(=O)N[C@H](C(=O)N1CCOCC1c1ncc(-c2ccc(C#Cc3ccc(-c4cnc(C5COCCN5C(=O)[C@@H](NC(=O)OC)C(C)C)[nH]4)cc3)cc2)[nH]1)C(C)C` (stereo in doubt) [Example N5, methyl ((1S)-1-(((3S)-3-(4-(4-((4-(2-((3S)-4-((2S)-2-((methoxycarbonyl)amino)-3-methylbutanoyl)-3-morpholinyl)-1H-imidazol-4-yl)phenyl)ethynyl)phenyl)-1H-imidazol-2-yl)-4-morpholinyl)carbonyl)-2-methylpropyl)carbamate]: the EC50 was in the range of 2 to 99 pM. On the same count and under the same terms, in the case of `COC(=O)N[C@@H](C(=O)N1CCC[C@H]1c1nc(-c2ccc(-c3ccc(-c4ccc(-c5c[nH]c([C@@H]6CCCN6C(=O)[C@H](NC(=O)OC)c6ccccc6)n5)cc4)cc3)cc2)c[nH]1)c1ccccc1` [Example D-1, dimethyl (1,1′:4′,1″-terphenyl-4,4″-diylbis(1H-imidazole-4,2-diyl(2S)-2,1-pyrrolidinediyl((1R)-2-oxo-1-phenyl-2,1-ethanediyl)))biscarbamate] it was 2 to 99 pM; in that of `CN(C)[C@@H](C(=O)N1CCC[C@H]1c1nc(-c2ccc(-c3ccc(-c4ccc(-c5c[nH]c([C@@H]6CCCN6C(=O)[C@@H](c6ccccc6)N(C)C)n5)cc4)cc3)cc2)c[nH]1)c1ccccc1` [Example D-2, (1R)-2-((2S)-2-(4-(4″-(2-((2S)-1-((2R)-2-(dimethylamino)-2-phenylacetyl)-2-pyrrolidinyl)-1H-imidazol-5-yl)-1,1′:4′,1″-terphenyl-4-yl)-1H-imidazol-2-yl)-1-pyrrolidinyl)-N,N-dimethyl-2-oxo-1-phenylethanamine], 100 to 990 pM. Take `COC(=O)N[C@H](C(=O)N1CCC[C@H]1c1ncc(-c2ccc(C#Cc3ccc4c(c3)CCc3nc([C@@H]5CCCN5C(=O)[C@@H](NC(=O)OC)C(C)C)[nH]c3-4)cc2)[nH]1)C(C)C` [Example D-3, methyl ((1S)-1-(((2S)-2-(4-(4-((2-((2S)-1-((2S)-2-((methoxycarbonyl)amino)-3-methylbutanoyl)-2-pyrrolidinyl)-4,5-dihydro-1H-naphtho[1,2-d]imidazol-7-yl)ethynyl)phenyl)-1H-imidazol-2-yl)-1-pyrrolidinyl)carbonyl)-2-methylpropyl)carbamate]: the EC50 was 2 to 99 pM. Still for that read-out and setting: in the case of `COC(=O)N[C@@H](C(=O)N1CCC[C@H]1c1ncc(-c2ccc(C#Cc3ccc4c(c3)CCc3nc([C@@H]5CCCN5C(=O)[C@H](NC(=O)OC)c5ccccc5)[nH]c3-4)cc2)[nH]1)c1ccccc1` [Example D-4, methyl ((1R)-2-((2S)-2-(4-(4-((2-((2S)-1-((2R)-2-((methoxycarbonyl)amino)-2-phenylacetyl)-2-pyrrolidinyl)-4,5-dihydro-1H-naphtho[1,2-d]imidazol-7-yl)ethynyl)phenyl)-1H-imidazol-2-yl)-1-pyrrolidinyl)-2-oxo-1-phenylethyl)carbamate] it was 2 to 99 pM. On to `COC(=O)N[C@@H](C(=O)N1CCC[C@H]1c1ncc(-c2ccc(C#Cc3ccc4c(ccc5nc([C@@H]6CCCN6C(=O)[C@H](NC(=O)OC)c6ccccc6)[nH]c54)c3)cc2)[nH]1)c1ccccc1` [Example D-5, methyl ((1R)-2-((2S)-2-(7-((4-(2-((2S)-1-((2R)-2-((methoxycarbonyl)amino)-2-phenylacetyl)-2-pyrrolidinyl)-1H-imidazol-4-yl)phenyl)ethynyl)-1H-naphtho[1,2-d]imidazol-2-yl)-1-pyrrolidinyl)-2-oxo-1-phenylethyl)carbamate], for which the EC50 lay in the range of 2 to 99 pM. In the case of `COC(=O)N[C@H](C(=O)N1CCC[C@H]1c1ncc(-c2ccc(C#Cc3ccc4c(ccc5nc([C@@H]6CCCN6C(=O)[C@@H](NC(=O)OC)C(C)C)[nH]c54)c3)cc2)[nH]1)C(C)C` [Example D-6, methyl ((1S)-1-(((2S)-2-(4-(4-((2-((2S)-1-((2S)-2-((methoxycarbonyl)amino)-3-methylbutanoyl)-2-pyrrolidinyl)-1H-naphtho[1,2-d]imidazol-7-yl)ethynyl)phenyl)-1H-imidazol-2-yl)-1-pyrrolidinyl)carbonyl)-2-methylpropyl)carbamate], the EC50 lay in the range of 2 to 99 pM. Still for that read-out and setting: in the case of `COC(=O)N[C@H](C(=O)N1[C@@H]2C[C@@H]2C[C@H]1c1ncc(-c2ccc(C#Cc3ccc4c(ccc5nc([C@@H]6C[C@H]7C[C@H]7N6C(=O)[C@@H](NC(=O)OC)C(C)C)[nH]c54)c3)cc2)[nH]1)C(C)C` [Example D-7, methyl ((1S)-1-(((1R,3S,5R)-3-(4-(4-((2-((1R,3S,5R)-2-((2S)-2-((methoxycarbonyl)amino)-3-methylbutanoyl)-2-azabicyclo[3.1.0]hex-3-yl)-1H-naphtho[1,2-d]imidazol-7-yl)ethynyl)phenyl)-1H-imidazol-2-yl)-2-azabicyclo[3.1.0]hex-2-yl)carbonyl)-2-methylpropyl)carbamate] it was 2 to 99 pM; in that of `COC(=O)N[C@@H](C(=O)N1[C@@H]2C[C@@H]2C[C@H]1c1ncc(-c2ccc(C#Cc3ccc4c(ccc5nc([C@@H]6C[C@H]7C[C@H]7N6C(=O)[C@H](NC(=O)OC)c6ccccc6)[nH]c54)c3)cc2)[nH]1)c1ccccc1` [Example D-8, methyl ((1R)-2-((1R,3S,5R)-3-(7-((4-(2-((1R,3S,5R)-2-((2R)-2-((methoxycarbonyl)amino)-2-phenylacetyl)-2-azabicyclo[3.1.0]hex-3-yl)-1H-imidazol-4-yl)phenyl)ethynyl)-1H-naphtho[1,2-d]imidazol-2-yl)-2-azabicyclo[3.1.0]hex-2-yl)-2-oxo-1-phenylethyl)carbamate], 2 to 99 pM; in that of `COC(=O)N[C@H](C(=O)N1[C@@H]2C[C@@H]2C[C@H]1c1nc2c([nH]1)-c1ccc(C#Cc3ccc4c(c3)CCc3nc([C@@H]5C[C@H]6C[C@H]6N5C(=O)[C@@H](NC(=O)OC)C(C)C)[nH]c3-4)cc1CC2)C(C)C` [Example D-9, methyl ((1S)-1-(((1R,3S,5R)-3-(7-((2-((1R,3S,5R)-2-((2S)-2-((methoxycarbonyl)amino)-3-methylbutanoyl)-2-azabicyclo[3.1.0]hex-3-yl)-4,5-dihydro-1H-naphtho[1,2-d]imidazol-7-yl)ethynyl)-4,5-dihydro-1H-naphtho[1,2-d]imidazol-2-yl)-2-azabicyclo[3.1.0]hex-2-yl)carbonyl)-2-methylpropyl)carbamate], 2 to 99 pM. Turning to `COC(=O)N[C@H](C(=O)N1[C@@H]2C[C@@H]2C[C@H]1c1nc2ccc3cc(C#Cc4ccc5c(ccc6nc([C@@H]7C[C@H]8C[C@H]8N7C(=O)[C@@H](NC(=O)OC)C(C)C)[nH]c65)c4)ccc3c2[nH]1)C(C)C` [Example D-10, methyl ((1S)-1-(((1R,3S,5R)-3-(7-((2-((3S)-2-((2S)-2-((methoxycarbonyl)amino)-3-methylbutanoyl)-2-azabicyclo[3.1.0]hex-3-yl)-1H-naphtho[1,2-d]imidazol-7-yl)ethynyl)-1H-naphtho[1,2-d]imidazol-2-yl)-2-azabicyclo[3.1.0]hex-2-yl)carbonyl)-2-methylpropyl)carbamate], the EC50 lay within 2 to 99 pM.
